The source of these data is paper PMC6026317, “Molecular elements in FGF19 and FGF21 defining KLB/FGFR activity and specificity” (Molecular Metabolism, 2018).

In one experiment the test system is 293/KLB cells. As to the kind of experiment: Agonist pERK AlphaLISA assay in 293/KLB cells. Conditions: 10 min at 37° C, n = 3. The class given is cell-based, human. How it is done: (§1) 293T HEK cells expressing KLB (or KL) or Hep3B cells were plated to 5–6 x 10^4 cells/well density in 96-well cell culture plate coated with poly-D-Lysine (Corning). The cells were serum starved for four hours in 0.1% BSA fraction V (ThermoFisher) containing media prior to treatment with protein and/or an antagonist peptide at the mentioned concentrations for 10 min at 37° C. For the antagonist assays, a chosen fixed dose within the range of 0.8–30 nM (depending on the cell type) of FGF21 or FGF19 stimulant was added to all the wells. BaF3 cells expressing human KLB/FGFR1c or human KLB/FGFR4-1c chimera were seeded at 5 × 10^5 cells/well density in 96-well cell culture plate and serum-starved overnight. FGF21/19 analogs were diluted in 0.02% Tween-20 containing RPMI1640 medium and the cells were treated for 15 min at 37° C. Following the respective cell treatments, the cells were lysed (with lysis buffer provided in the kit) for 10 min at room temperature on a shaker and the lysate was mixed with reaction mixture (consisting of reaction buffer, activation buffer, acceptor and donor beads provided in the kit). Phosphorylated ERK1/2 (pERK) levels were subsequently recorded by EnSpire Alpha or Envision Multilabel plate reader (Perkin Elmer). The cell assays corresponding to 293/KLB or Hep3B cells were carried out with AlphaLISA SureFire Ultra pERK1/2 (Thr 202/Tyr204) kit (Perkin Elmer), and BaF3 cells were done using AlphaScreen pERK1/2 (Thr202/Tyr204) kit (Perkin Elmer).
All cellular phosphorylation data were analyzed using 3-parameter non-linear regression curve in GraphPad Prism 7. Graphs are represented as relative maximal (100%) response of the positive control. All other test analog signals were adjusted accordingly as % values. […] Each peptide and protein analog was tested in triplicates in three independent experiments (n = 3), and normalized graphs plotted are expressed as mean ± SD unless otherwise noted.
For orientation: In Alpha technology, singlet oxygen from a donor bead excites a nearby acceptor bead.

In another experiment the test system is Hep3B cells. As to the kind of experiment: Agonist pERK AlphaLISA assay in Hep3B cells. The class given is cell-based, human. Conditions: 10 min at 37° C, n = 3. How it is done: as §1, with “Following the respective cell treatments, the cells were lysed (with lysis buffer provided in the kit) for 10 min at room temperature on a shaker and the lysate was mixed with reaction mixture (consisting of reaction buffer, activation buffer, acceptor and donor beads provided in the kit).” left out, “The cell assays corresponding to 293/KLB or Hep3B cells were carried out with AlphaLISA SureFire Ultra pERK1/2 (Thr 202/Tyr204) kit (Perkin Elmer), and BaF3 cells were done using AlphaScreen pERK1/2 (Thr202/Tyr204) kit (Perkin Elmer).” left out
All cellular phosphorylation data were analyzed using 3-parameter non-linear regression curve in GraphPad Prism 7. […] Each peptide and protein analog was tested in triplicates in three independent experiments (n = 3), and normalized graphs plotted are expressed as mean ± SD unless otherwise noted.

The test system of the next experiment is human FGFR1/KLB. As to the kind of experiment: Agonist pERK AlphaScreen assay in BaF3 cells, FGFR1/KLB. As to conditions: BaF3 cells co-expressing KLB and FGFR1; 15 min at 37° C; n = 3. It is filed as cell-based. The source says: (§2) For generating receptor specific BaF3 cell line, human FGFR1c cDNA was cloned into pMXs-IRES-Puro vector (Cell Biolabs) to generate the expression plasmid pMX-FGFR1c-IRES-Puro. Human FGFR4 sequence was re-engineered to enhance signaling by constructing chimeric cDNA encoding the extracellular region of FGFR4 fused to the intracellular region and tyrosine kinase domain of FGFR1c, and the chimeric sequence was cloned into pMX-IRES-Puro vector to generate the expression plasmid pMX-chimeric FGFR4-1c-IRES-Puro. Human KLB cDNA was cloned into pMXs-IRES-Neo vector (Cell Biolabs) to generate expression plasmid pMX-KLB-IRES-Neo. BaF3 cells were transfected with pMX-FGFR1c-IRES-Puro and pMX- FGFR4-1c chimera-IRES-Puro expression plasmids respectively by electroporation (Xcell machine, Bio-Rad, 950 μF, 370V). Cells were selected with media containing 1 μg/ml Puromycin for 10–12 days. […]
(§3) 293T HEK cells expressing KLB (or KL) or Hep3B cells were plated to 5–6 x 10^4 cells/well density in 96-well cell culture plate coated with poly-D-Lysine (Corning). […] Phosphorylated ERK1/2 (pERK) levels were subsequently recorded by EnSpire Alpha or Envision Multilabel plate reader (Perkin Elmer). […]
(§4) All cellular phosphorylation data were analyzed using 3-parameter non-linear regression curve in GraphPad Prism 7. […]

In experiment [1] the test system is human FGFR4-1c chimera/KLB. As to the kind of experiment: Agonist pERK AlphaScreen assay in BaF3 cells, FGFR4-1c chimera/KLB. It is filed as cell-based. Conditions: BaF3 cells co-expressing KLB and FGFR4-1c chimera; 15 min at 37° C; n = 3.
From the text: as §2, §3, §4

In the case of “FGF19,A^194: FGF19 analog with single C-terminal lysine substitution to alanine”, the “pERK agonist activity, in words” value is “nearly tenfold more active than FGF19” with 293/KLB cells, “comparable” in the experiment with Hep3B cells, “enhanced signaling at the FGFR1/KLB complex by approximately ten-fold” in the experiment with human FGFR1/KLB and “no change in bioactivity” in experiment [1].
